This note sets out measurements from US20240252488A1 (KOREA RESEARCH INSTITUTE OF CHEMICAL TECHNOLOGY, priority 2020, published 2024).

A word on the Kd: it is the constant that tells how readily two partners part at equilibrium.

The subject of one assay is FADD−/− Jurkat cells. Kind of assay: Necroptosis inhibition assay, TNF-α-induced necroptosis (CellTiter-Glo 2.0). The assay is classed as cell-based, human. Conditions: TNF-α 15 ng/mL; for Necroptosis inhibition assay (Rescue %) 1 μM: compound 1 μM; for Necroptosis inhibition assay (Rescue %) 10 μM: compound 10 μM. A digest of the protocol: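 FADD−/− Jurkat cells preincubated 30 min at room temperature with compound at 0.1, 1 and 10 μM final, then stimulated with TNF-α (15 ng/mL final) for 20–24 h at 37 °C, 5% CO2. Viability read as ATP luminescence; cytotoxicity and necroptosis inhibition rate calculated from luminescence values.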
(In general: Cellular ATP, detected with luciferase, serves as a proxy for viable cell number.)

Assay [1] addresses T1, MLKL (Homo sapiens, UniProt Q8NB16).
T1 sequence (Q8NB16 1-471): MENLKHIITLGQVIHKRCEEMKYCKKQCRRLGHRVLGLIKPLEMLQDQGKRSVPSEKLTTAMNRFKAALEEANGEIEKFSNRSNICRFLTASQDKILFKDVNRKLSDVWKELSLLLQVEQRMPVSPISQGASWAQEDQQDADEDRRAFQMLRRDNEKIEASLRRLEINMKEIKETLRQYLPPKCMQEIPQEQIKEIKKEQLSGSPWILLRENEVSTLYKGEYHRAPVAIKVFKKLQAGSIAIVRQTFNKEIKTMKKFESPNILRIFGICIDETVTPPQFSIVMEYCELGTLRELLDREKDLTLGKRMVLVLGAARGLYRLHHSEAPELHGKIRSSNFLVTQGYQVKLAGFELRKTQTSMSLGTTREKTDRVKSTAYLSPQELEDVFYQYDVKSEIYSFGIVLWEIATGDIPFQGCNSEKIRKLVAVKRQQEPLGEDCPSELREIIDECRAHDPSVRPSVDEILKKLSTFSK
Kind of assay: Measurement of binding affinity with MLKL receptor (competitive binding assay, Kd). Further details: made in house; host or cells: HEK 293 cell line (T7 phage in E. coli BL21-derived host is also described). A digest of the protocol: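 Kd from an immobilized-ligand competition format: the DNA-tagged kinase from HEK 293 expression is eluted and quantified by qPCR. Compounds added from 111× DMSO stocks, final DMSO 0.9%.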

The target of assay [2] is T1, MLKL. Kind of assay: MLKL degradation assay in HepG2 cell line (western blot). Format: cell-based. The settings on record: cell line not given; for Degradation assay (Degradation %) 1 μM: compound 1 μM; for Degradation assay (Degradation %) 10 μM: compound 10 μM. Further details: endogenous in cells; host or cells: HepG2 or HaCaT. An outline of the steps:
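HepG2 cells were treated 20-24 h at 37 °C with compound at 1 or 10 μM final. RIPA lysates were normalized by BCA, and 10-15 μg protein per lane was resolved by SDS-PAGE. MLKL was detected by western blot with chemiluminescence.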

For `COc1ccc(C(=O)N2CCC(CN3CCN(CCCN4CCC(n5cc(-c6cnc(N)c(C(=O)O[C@@H](C(=O)Nc7ccc(F)cc7)c7ccccc7)n6)cn5)CC4)CC3)CC2)cc1N1CCC(=O)NC1=O` [TDH-478, (R)-2-((4-fluorophenyl)amino)-2-oxo-1-phenylethyl 3-amino-6-(1-(1-(3-(4-((1-(3-(2,4-dioxotetrahydropyrimidin-1(2H)-yl)-4-methoxybenzoyl)piperidin-4-yl)methyl)piperazin-1-yl)propyl)piperidin-4-yl)-1H-pyrazol-4-yl)pyrazine-2-carboxylate], in the assay on FADD−/− Jurkat cells (FADD−/− Jurkat cells), the “Necroptosis inhibition assay (Rescue %) 1 μM” value came out at 92.11% and the “Necroptosis inhibition assay (Rescue %) 10 μM” value was 43.19%. The same compound yielded a Kd on MLKL [1] of 0.26 nM. At MLKL [2], the “Degradation assay (Degradation %) 1 μM” value is listed as 89.29% and the “Degradation assay (Degradation %) 10 μM” value was found to be 86.88%.
Take `Nc1ncc(-c2cnn(C3CCN(CC4CN(C(=O)COc5ccc6c(c5)C(=O)N(C5CCC(=O)NC5=O)C6=O)CCO4)CC3)c2)nc1C(=O)O[C@@H](C(=O)Nc1ccc(F)cc1)c1ccccc1` (stereo partly drawn) [TDH-390, (R)-2-((4-fluorophenyl)amino)-2-oxo-1-phenylethyl 3-amino-6-(1-(1-((4-(2-((2-(2,6-dioxopiperidin-3-yl)-1,3-dioxoisoindolin-5-yl)oxy)acetyl)morpholin-2-yl)methyl)piperidin-4-yl)-1H-pyrazol-4-yl)pyrazine-2-carboxylate]: in the assay with FADD−/− Jurkat cells, the “Necroptosis inhibition assay (Rescue %) 1 μM” value worked out at 46.50% and the “Necroptosis inhibition assay (Rescue %) 10 μM” value was 36.13%. The Kd on MLKL [1] is 2.6 nM. On MLKL [2], the “Degradation assay (Degradation %) 1 μM” value was 80.07% and the “Degradation assay (Degradation %) 10 μM” value is given as 93.00%.
Taken in the same sequence, the figures for `Nc1ncc(-c2cnn(C3CCN(CCC4CCN(C(=O)CNc5ccc6c(c5)C(=O)N(C5CCC(=O)NC5=O)C6=O)CC4)CC3)c2)cc1C(=O)OC(C(=O)Nc1ccc(F)cc1)c1ccccc1` (stereo not drawn) [TDH-302, 2-((4-fluorophenyl)amino)-2-oxo-1-phenylethyl 2-amino-5-(1-(1-(2-(1-((2-(2,6-dioxopiperidin-3-yl)-1,3-dioxoisoindolin-5-yl)glycyl)piperidin-4-yl)ethyl)piperidin-4-yl)-1H-pyrazol-4-yl)nicotinate] were 54.15%, 51.56%, 8.6 nM, 96.64% and 85.06%.
In the case of `COc1ccc(C(=O)N2CCC(C(=O)N3CCC(OCCN4CCC(CN5CCC(n6cc(-c7cnc(N)c(C(=O)O[C@@H](C(=O)Nc8ccc(F)cc8)c8ccccc8)n7)cn6)CC5)CC4)CC3)CC2)cc1N1CCC(=O)NC1=O` [TDH-512, (R)-2-((4-fluorophenyl)amino)-2-oxo-1-phenylethyl 3-amino-6-(1-(1-((1-(2-((1-(1-(3-(2,4-dioxotetrahydropyrimidin-1(2H)-yl)-4-methoxybenzoyl)piperidine-4-carbonyl)piperidin-4-yl)oxy)ethyl)piperidin-4-yl)methyl)piperidin-4-yl)-1H-pyrazol-4-yl)pyrazine-2-carboxylate], in the assay with FADD−/− Jurkat cells (FADD−/− Jurkat cells), the “Necroptosis inhibition assay (Rescue %) 1 μM” value came to 24.43% and the “Necroptosis inhibition assay (Rescue %) 10 μM” value turned out to be 52.33%. For the same compound, at MLKL [1], the Kd was 0.74 nM. Further, on MLKL [2], the “Degradation assay (Degradation %) 1 μM” value is given as 51.41% and the “Degradation assay (Degradation %) 10 μM” value is on record as 80.48%.
The like results for `Nc1ncc(-c2cnn(C3CCN(CCCN4CC5CN(C(=O)CNc6ccc7c(c6)C(=O)N(C6CCC(=O)NC6=O)C7=O)CC5C4)CC3)c2)nc1C(=O)O[C@@H](C(=O)Nc1ccc(F)cc1)c1ccccc1` (stereo partly drawn) [TDH-467, (R)-2-((4-fluorophenyl)amino)-2-oxo-1-phenylethyl 3-amino-6-(1-(1-(3-(5-((2-(2,6-dioxopiperidin-3-yl)-1,3-dioxoisoindolin-5-yl)glycyl)hexahydropyrrolo[3,4-c]pyrrol-2(1H)-yl)propyl)piperidin-4-yl)-1H-pyrazol-4-yl)pyrazine-2-carboxylate] were, in that order, 54.19%, −9.09%, 0.5 nM, 93.95% and 86.45%.
As to `Nc1ncc(-c2cnn(C3CCN(CC4CCN(C(=O)CNc5ccc6c(c5)C(=O)N(C5CCC(=O)NC5=O)C6=O)CC4)CC3)c2)nc1C(=O)N[C@@H](C(=O)Nc1ccc(F)cc1)c1ccccc1` (stereo partly drawn) [TDH-207, 3-amino-6-(1-(1-((1-((2-(2,6-dioxopiperidin-3-yl)-1,3-dioxoisoindolin-5-yl)glycyl)piperidin-4-yl)methyl)piperidin-4-yl)-1H-pyrazol-4-yl)-N-((R)-2-((4-fluorophenyl)amino)-2-oxo-1-phenylethyl)pyrazine-2-carboxamide], in the assay with FADD−/− Jurkat cells, the “Necroptosis inhibition assay (Rescue %) 1 μM” value is 28.69% and the “Necroptosis inhibition assay (Rescue %) 10 μM” value is 32.45%. In addition, at MLKL [1], binding was put at a Kd of 210 nM. Further, on MLKL [2], the “Degradation assay (Degradation %) 1 μM” value stood at 17.98% and the “Degradation assay (Degradation %) 10 μM” value is 24.18%.
As for `Nc1ncc(-c2cnn(C3CCN(C(=O)COC4CCN(C(=O)CNc5cccc6c5C(=O)N(C5CCC(=O)NC5=O)C6=O)CC4)CC3)c2)nc1C(=O)O[C@@H](C(=O)Nc1ccc(F)cc1)c1ccccc1` (stereo partly drawn) [TDH-395, (R)-2-((4-fluorophenyl)amino)-2-oxo-1-phenylethyl 3-amino-6-(1-(1-(2-((1-((2-(2,6-dioxopiperidin-3-yl)-1,3-dioxoisoindolin-4-yl)glycyl)piperidin-4-yl)oxy)acetyl)piperidin-4-yl)-1H-pyrazol-4-yl)pyrazine-2-carboxylate], in the assay on FADD−/− Jurkat cells, the “Necroptosis inhibition assay (Rescue %) 1 μM” value was 34.73% and the “Necroptosis inhibition assay (Rescue %) 10 μM” value stood at 37.15%. The same compound registered a Kd on MLKL [1] of 6.1 nM. Further, at MLKL [2], the “Degradation assay (Degradation %) 1 μM” value came to 88.76% and the “Degradation assay (Degradation %) 10 μM” value is 89.67%.
Consider `Nc1ncc(-c2cnn([C@H]3CCN(CCOCCOCCNC(=O)COc4cccc5c4C(=O)N(C4CCC(=O)NC4=O)C5=O)C3)c2)nc1C(=O)OC(C(=O)Nc1ccc(F)cc1)c1ccccc1` (stereo partly drawn) [TDH-265, 2-((4-fluorophenyl)amino)-2-oxo-1-phenylethyl 3-amino-6-(1-((3S)-1-(2-(2-(2-(2-((2-(2,6-dioxopiperidin-3-yl)-1,3-dioxoisoindolin-4-yl)oxy)acetamido)ethoxy)ethoxy)ethyl)pyrrolidin-3-yl)-1H-pyrazol-4-yl)pyrazine-2-carboxylate], for which, in the assay on FADD−/− Jurkat cells, the “Necroptosis inhibition assay (Rescue %) 1 μM” value is on record as 19.18% and the “Necroptosis inhibition assay (Rescue %) 10 μM” value was determined as 41.68%. Further, the affinity on MLKL [1], expressed as Kd, was 4.4 nM. On MLKL [2], the “Degradation assay (Degradation %) 1 μM” value is reported as 11.99% and the “Degradation assay (Degradation %) 10 μM” value is on record as 49.83%.
For `Nc1ncc(-c2cnn(C3CCN(C(=O)CCC4CCN(c5cccc6c5C(=O)N(C5CCC(=O)NC5=O)C6=O)CC4)CC3)c2)nc1C(=O)O[C@@H](C(=O)Nc1ccc(F)cc1)c1ccccc1` (stereo partly drawn) [TDH-419, (R)-2-((4-fluorophenyl)amino)-2-oxo-1-phenylethyl 3-amino-6-(1-(1-(3-(1-(2-(2,6-dioxopiperidin-3-yl)-1,3-dioxoisoindolin-4-yl)piperidin-4-yl)propanoyl)piperidin-4-yl)-1H-pyrazol-4-yl)pyrazine-2-carboxylate], in the assay on FADD−/− Jurkat cells (FADD−/− Jurkat cells), the “Necroptosis inhibition assay (Rescue %) 1 μM” value was 26.56% and the “Necroptosis inhibition assay (Rescue %) 10 μM” value came out at 18.52%. The compound also registered a Kd on MLKL [1] of 5.9 nM. Further, at MLKL [2], the “Degradation assay (Degradation %) 1 μM” value is reported as 82.06% and the “Degradation assay (Degradation %) 10 μM” value stood at 64.50%.
